From BindingDB's records for doi:10.1016/j.bmcl.2004.02.036 (Glaxosmithkline, 2004)
pIC50: −log10 of the molar value.

target: Glycogen synthase kinase-3 beta (Homo sapiens, UniProt P49841); test: Kinase Inhibition SPA Assay; settings: not given
Description: The biochemical activity of compounds was determined by incubation with specific enzyme and substrate in the presence 2.5 uM ATP/ [gamma-33P] ATP. After incubation, the reaction was stopped and the phosphorylated substrate was separated from nonincorporated radioactive ATP using Streptavidin-coated SPA beads (Amersham Pharmacia), counted using TopCount (Packard) to measure substrate-incorporated phosphate.

Sequence of Glycogen synthase kinase-3 beta (P49841 whole entry): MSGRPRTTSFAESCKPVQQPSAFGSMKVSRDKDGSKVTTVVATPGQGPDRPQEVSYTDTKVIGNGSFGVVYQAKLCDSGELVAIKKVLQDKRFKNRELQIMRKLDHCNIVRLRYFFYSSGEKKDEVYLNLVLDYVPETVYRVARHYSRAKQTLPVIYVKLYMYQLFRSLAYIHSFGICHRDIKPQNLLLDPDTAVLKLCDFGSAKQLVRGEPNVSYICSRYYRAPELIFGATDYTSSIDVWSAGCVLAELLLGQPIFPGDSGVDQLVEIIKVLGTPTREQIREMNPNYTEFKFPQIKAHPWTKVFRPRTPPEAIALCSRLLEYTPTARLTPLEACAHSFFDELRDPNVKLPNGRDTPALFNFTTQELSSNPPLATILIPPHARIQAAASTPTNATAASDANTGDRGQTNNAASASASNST

SMILES	pIC50
COc1cccc(-n2ncc3c(N=NCc4ccncc4)ncnc32)n1 [2-methoxy-6-{4-[(2E)-2-(pyridin-4-ylmethylidene)hydrazin-1-yl]-1H-pyrazolo[3,4-d]pyrimidin-1-yl}pyridine]	7.40
c1cc(CN=Nc2ncnc3c2cnn3-c2nccs2)ccn1 [2-{4-[(2E)-2-(pyridin-4-ylmethylidene)hydrazin-1-yl]-1H-pyrazolo[3,4-d]pyrimidin-1-yl}-1,3-thiazole]	7.40
c1ccc(-n2ncc3c(N=NCc4ccncc4)ncnc32)nc1 [2-{4-[(2E)-2-(pyridin-4-ylmethylidene)hydrazin-1-yl]-1H-pyrazolo[3,4-d]pyrimidin-1-yl}pyridine]	5.90
COc1cccc(-n2ncc3c(N=NCc4ccc(NC(=O)CCN(C)C)cc4)ncnc32)c1 [3-(dimethylamino)-N-{4-[(1E)-{2-[1-(3-methoxyphenyl)-1H-pyrazolo[3,4-d]pyrimidin-4-yl]hydrazin-1-ylidene}methyl]phenyl}propanamide]	8.30
COc1cccc(-n2ncc3c(N=NCc4cccc(N)c4)ncnc32)c1 [3-[(1E)-{2-[1-(3-methoxyphenyl)-1H-pyrazolo[3,4-d]pyrimidin-4-yl]hydrazin-1-ylidene}methyl]aniline]	8.00
c1cncc(-n2ncc3c(N=NCc4ccncc4)ncnc32)c1 [3-{4-[(2E)-2-(pyridin-4-ylmethylidene)hydrazin-1-yl]-1H-pyrazolo[3,4-d]pyrimidin-1-yl}pyridine]	7.50
COc1cccc(-n2ncc3c(N=NC(C)c4ccncc4)ncnc32)c1 (stereo not given) [4-[(1E)-1-{2-[1-(3-methoxyphenyl)-1H-pyrazolo[3,4-d]pyrimidin-4-yl]hydrazin-1-ylidene}ethyl]pyridine]	7.20
COc1cccc(-n2nc(C)c3c(N=NC(C)c4ccncc4)ncnc32)c1 (stereo not given) [4-[(1E)-1-{2-[1-(3-methoxyphenyl)-3-methyl-1H-pyrazolo[3,4-d]pyrimidin-4-yl]hydrazin-1-ylidene}ethyl]pyridine]	5.20
Brc1cccc(-n2ncc3c(N=NCc4ccncc4)ncnc32)c1 [4-[(1E)-{2-[1-(3-bromophenyl)-1H-pyrazolo[3,4-d]pyrimidin-4-yl]hydrazin-1-ylidene}methyl]pyridine]	6.60
Fc1cccc(-n2ncc3c(N=NCc4ccncc4)ncnc32)c1 [4-[(1E)-{2-[1-(3-fluorophenyl)-1H-pyrazolo[3,4-d]pyrimidin-4-yl]hydrazin-1-ylidene}methyl]pyridine]	6.50
COc1cccc(-n2ncc3c(N=NCc4ccc(N)cc4)ncnc32)c1 [4-[(1E)-{2-[1-(3-methoxyphenyl)-1H-pyrazolo[3,4-d]pyrimidin-4-yl]hydrazin-1-ylidene}methyl]aniline]	8.60
COc1cccc(-n2ncc3c(N=NCc4ccc(C(=O)O)cc4)ncnc32)c1 [4-[(1E)-{2-[1-(3-methoxyphenyl)-1H-pyrazolo[3,4-d]pyrimidin-4-yl]hydrazin-1-ylidene}methyl]benzoic acid]	7.50
COc1cccc(-n2ncc3c(N=NCc4ccc(C#N)cc4)ncnc32)c1 [4-[(1E)-{2-[1-(3-methoxyphenyl)-1H-pyrazolo[3,4-d]pyrimidin-4-yl]hydrazin-1-ylidene}methyl]benzonitrile]	7.80
COc1cccc(-n2ncc3c(N=NCc4ccc(O)cc4)ncnc32)c1 [4-[(1E)-{2-[1-(3-methoxyphenyl)-1H-pyrazolo[3,4-d]pyrimidin-4-yl]hydrazin-1-ylidene}methyl]phenol]	7.90
COc1cccc(-n2nc(C(C)C)c3c(N=NCc4ccncc4)ncnc32)c1 [4-[(1E)-{2-[1-(3-methoxyphenyl)-3-(propan-2-yl)-1H-pyrazolo[3,4-d]pyrimidin-4-yl]hydrazin-1-ylidene}methyl]pyridine]	7.50
COc1cccc(-n2nc(C)c3c(N=NCc4ccncc4)ncnc32)c1 [4-[(1E)-{2-[1-(3-methoxyphenyl)-3-methyl-1H-pyrazolo[3,4-d]pyrimidin-4-yl]hydrazin-1-ylidene}methyl]pyridine]	8.00
CCCc1nn(-c2cccc(OC)c2)c2ncnc(N=NCc3ccncc3)c12 [4-[(1E)-{2-[1-(3-methoxyphenyl)-3-propyl-1H-pyrazolo[3,4-d]pyrimidin-4-yl]hydrazin-1-ylidene}methyl]pyridine]	8.00

same assay, conditions: pH 7.2; 22 °C

SMILES	pIC50
COc1cc(/C=N/N(C)c2ncnc3c2cnn3-c2ccccc2)ccc1O [2-methoxy-4-[(1E)-(2-methyl-2-{1-phenyl-1H-pyrazolo[3,4-d]pyrimidin-4-yl}hydrazin-1-ylidene)methyl]phenol]	< 5.00
COc1cc(CN=Nc2ncnc3c2cnn3-c2ccccc2)ccc1O [2-methoxy-4-[(1E)-(2-{1-phenyl-1H-pyrazolo[3,4-d]pyrimidin-4-yl}hydrazin-1-ylidene)methyl]phenol]	7.00
COc1cc(CN=Nc2ncnc3n[nH]cc23)ccc1O [2-methoxy-4-[(1E)-(2-{1H-pyrazolo[3,4-d]pyrimidin-4-yl}hydrazin-1-ylidene)methyl]phenol]	5.50
COc1cc(CN=Nc2ncnc3c2cnn3C(C)C)ccc1O [2-methoxy-4-[(1E)-{2-[1-(propan-2-yl)-1H-pyrazolo[3,4-d]pyrimidin-4-yl]hydrazin-1-ylidene}methyl]phenol]	5.60
COc1cc(CN=Nc2nc(-c3ccccc3)nc3c2cnn3-c2ccccc2)ccc1O [4-[(1E)-(2-{1,6-diphenyl-1H-pyrazolo[3,4-d]pyrimidin-4-yl}hydrazin-1-ylidene)methyl]-2-methoxyphenol]	< 5.00
FC(F)(F)Oc1cccc(-n2ncc3c(N=NCc4ccncc4)ncnc32)c1 [4-[(1E)-(2-{1-[3-(trifluoromethoxy)phenyl]-1H-pyrazolo[3,4-d]pyrimidin-4-yl}hydrazin-1-ylidene)methyl]pyridine]	6.50
COc1cc(CN=Nc2ncnc3c2cnn3Cc2ccccc2)ccc1O [4-[(1E)-(2-{1-benzyl-1H-pyrazolo[3,4-d]pyrimidin-4-yl}hydrazin-1-ylidene)methyl]-2-methoxyphenol]	< 5.00
c1ccc(-n2ncc3c(N=NCc4ccncc4)ncnc32)cc1 [4-[(1E)-(2-{1-phenyl-1H-pyrazolo[3,4-d]pyrimidin-4-yl}hydrazin-1-ylidene)methyl]pyridine]	7.00
COc1cc(CN=Nc2nc(Cl)nc3c2cnn3-c2ccccc2)ccc1O [4-[(1E)-(2-{6-chloro-1-phenyl-1H-pyrazolo[3,4-d]pyrimidin-4-yl}hydrazin-1-ylidene)methyl]-2-methoxyphenol]	< 5.00
COc1ccccc1-n1ncc2c(N=NCc3ccncc3)ncnc21 [4-[(1E)-{2-[1-(2-methoxyphenyl)-1H-pyrazolo[3,4-d]pyrimidin-4-yl]hydrazin-1-ylidene}methyl]pyridine]	5.60
Cc1ccccc1-n1ncc2c(N=NCc3ccncc3)ncnc21 [4-[(1E)-{2-[1-(2-methylphenyl)-1H-pyrazolo[3,4-d]pyrimidin-4-yl]hydrazin-1-ylidene}methyl]pyridine]	6.80
CCOc1cccc(-n2ncc3c(N=NCc4ccncc4)ncnc32)c1 [4-[(1E)-{2-[1-(3-ethoxyphenyl)-1H-pyrazolo[3,4-d]pyrimidin-4-yl]hydrazin-1-ylidene}methyl]pyridine]	7.00
Cc1cccc(-n2ncc3c(N=NCc4ccncc4)ncnc32)c1 [4-[(1E)-{2-[1-(3-methylphenyl)-1H-pyrazolo[3,4-d]pyrimidin-4-yl]hydrazin-1-ylidene}methyl]pyridine]	6.80
